Data taken from the supplement of paper PMC11061612.

How the values were obtained:
Capivasertib = compound: C1CN(CCC1(C(=O)N[C@@H](CCO)C2=CC=C(C=C2)Cl)N)C3=NC=NC4=C3C=CN4 [Capivasertib]
In short: (§1)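 Cancer cell lines were seeded in 1536-well plates in 7.5 μl DMEM/F12 or RPMI with 10% FBS, held 24 hours at 37°C and 5% CO2, then dosed for 72 hours (final DMSO typically 0.2%). Viability was read by CellTiter-Glo 2.0 luminescence and scaled between blank-well and DMSO-well means. The single-agent IC50 comes from dose responses fitted to a two-parameter logistic curve with a non-linear mixed effects model.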

AZD1775 = compound: C=CCn1c(=O)c2cnc(Nc3ccc(N4CCN(C)CC4)cc3)nc2n1-c1cccc(C(C)(C)O)n1 [AZD1775]; settings: max 3 µM
In short: as §1

AZD0156 = compound: CN(C)CCCOc1ccc(-c2ccc3ncc4c(c3c2)n(C2CCOCC2)c(=O)n4C)cn1 [AZD0156]; settings: max 3 µM
In short: as §1

Olaparib = compound: O=C(c1cc(Cc2n[nH]c(=O)c3ccccc23)ccc1F)N1CCN(C(=O)C2CC2)CC1 [Olaparib]
In short: as §1

Trametinib = compound: CC(=O)Nc1cccc(-n2c(=O)n(C3CC3)c(=O)c3c(Nc4ccc(I)cc4F)n(C)c(=O)c(C)c32)c1 [Trametinib]; settings: max 1 µM
In short: as §1

Palbociclib = compound: CC(=O)c1c(C)c2cnc(Nc3ccc(N4CCNCC4)cn3)nc2n(C2CCCC2)c1=O [Palbociclib]; settings: max 10 µM
In short: as §1

AZD1390 = compound: CC(C)n1c(=O)n(C)c2cnc3cc(F)c(-c4ccc(OCCCN5CCCCC5)nc4)cc3c21 [AZD1390]; settings: max 0.3 µM
In short: as §1

Venetoclax = compound: CC1(C)CCC(CN2CCN(c3ccc(C(=O)NS(=O)(=O)c4ccc(NCC5CCOCC5)c([N+](=O)[O-])c4)c(Oc4cnc5[nH]ccc5c4)c3)CC2)=C(c2ccc(Cl)cc2)C1 [Venetoclax]; settings: max 1 µM
In short: as §1

Dasatinib = compound: CC1=C(C(=CC=C1)Cl)NC(=O)C2=CN=C(S2)NC3=CC(=NC(=N3)C)N4CCN(CC4)CCO [Dasatinib]; settings: max 2 µM
In short: as §1

SG3199 = compound: CC1=CN2[C@@H](C1)C=NC3=CC(=C(C=C3C2=O)OC)OCCCCCOC4=C(C=C5C(=C4)N=C[C@@H]6CC(=CN6C5=O)C)OC [SG3199]; settings: max 0.001 µM
In short: as §1

AZD2811 = compound: CCN(CCO)CCCOc1ccc2c(Nc3cc(CC(=O)Nc4cccc(F)c4)[nH]n3)ncnc2c1 [AZD2811]; settings: max 1 µM
In short: as §1

SN-38 = compound: CCc1c2c(nc3ccc(O)cc13)-c1cc3c(c(=O)n1C2)COC(=O)[C@]3(O)CC [SN-38]; settings: max 0.3 µM
In short: as §1

AZD4320 = compound: CN(CC[C@H](CSC1=CC=CC=C1)NC2=C(C=C(C=C2)S(=O)(=O)NC(=O)C3=CC=C(C=C3)N4CCC(CC4)[C@H](C5=CC=CC=C5C6=CC=C(C=C6)Cl)O)S(=O)(=O)C(F)(F)F)CCO [AZD4320]; settings: max 1 µM
In short: as §1

Alisertib = compound: COc1cc(Nc2ncc3c(n2)-c2ccc(Cl)cc2C(c2c(F)cccc2OC)=NC3)ccc1C(=O)O [Alisertib]; settings: max 10 µM
In short: as §1

Gefitinib = compound: COc1cc2ncnc(Nc3ccc(F)c(Cl)c3)c2cc1OCCCN1CCOCC1 [Gefitinib]; settings: max 10 µM
In short: as §1

Prexasertib = compound: COc1cccc(OCCCN)c1-c1cc(Nc2cnc(C#N)cn2)n[nH]1 [Prexasertib]; settings: max 1 µM
In short: as §1

Doxorubicin = compound: COc1cccc2c1C(=O)c1c(O)c3c(c(O)c1C2=O)C[C@@](O)(C(=O)CO)C[C@@H]3O[C@H]1C[C@H](N)[C@H](O)[C@H](C)O1 [Doxorubicin]; settings: max 1 µM
In short: as §1

AZD5153 = compound: COc1nnc2ccc(N3CCC(c4ccc(OCCN5CCN(C)C(=O)[C@H]5C)cc4)CC3)nn12 [AZD5153]; settings: max 1 µM
In short: as §1

Lapatinib = compound: CS(=O)(=O)CCNCc1ccc(-c2ccc3ncnc(Nc4ccc(OCc5cccc(F)c5)c(Cl)c4)c3c2)o1 [Lapatinib]; settings: max 10 µM
In short: as §1

AZD8186 = compound: C[C@@H](Nc1cc(F)cc(F)c1)c1cc(C(=O)N(C)C)cc2c(=O)cc(N3CCOCC3)oc12 [AZD8186]; settings: max 3 µM
In short: as §1

Crizotinib = compound: C[C@@H](Oc1cc(-c2cnn(C3CCNCC3)c2)cnc1N)c1c(Cl)ccc(F)c1Cl [Crizotinib]; settings: max 10 µM
In short: as §1

Savolitinib = compound: C[C@@H](c1ccc2nccn2c1)n1nnc2ncc(-c3cnn(C)c3)nc21 [Savolitinib]; settings: max 1 µM
In short: as §1

AZD6738 = compound: C[C@@H]1COCCN1C2=NC(=NC(=C2)C3(CC3)[S@](=N)(=O)C)C4=C5C=CNC5=NC=C4 [AZD6738]; settings: max 10 µM
In short: as §1

AZD5991 = compound: Cc1c2c(nn1C)CSCc1cc(n(C)n1)CSc1cc(c3ccccc3c1)OCCCc1c(C(=O)O)n(C)c3c-2c(Cl)ccc13 [AZD5991]; settings: max 1 µM
In short: as §1

AZD7648 = compound: Cc1cc2ncnn2cc1Nc1ncc2c(n1)n(C1CCOCC1)c(=O)n2C [AZD7648]; settings: max 10 µM
In short: as §1

Taselisib = compound: Cc1nc(-c2cn3c(n2)-c2ccc(-c4cnn(C(C)(C)C(N)=O)c4)cc2OCC3)n(C(C)C)n1 [Taselisib]; settings: max 10 µM
In short: as §1

Selumetinib = compound: Cn1cnc2c(F)c(Nc3ccc(Br)cc3Cl)c(C(=O)NOCCO)cc21 [Selumetinib]; settings: max 10 µM
In short: as §1

Cell Line | IC50, cell viability 72 h (Capivasertib; max 3 µM) | IC50, cell viability 72 h (AZD1775) | IC50, cell viability 72 h (AZD0156) | IC50, cell viability 72 h (Olaparib; max 3 µM) | IC50, cell viability 72 h (Capivasertib; max 10 µM) | IC50, cell viability 72 h (Trametinib) | IC50, cell viability 72 h (Palbociclib) | IC50, cell viability 72 h (AZD1390) | IC50, cell viability 72 h (Venetoclax) | IC50, cell viability 72 h (Dasatinib) | IC50, cell viability 72 h (SG3199) | IC50, cell viability 72 h (AZD2811) | IC50, cell viability 72 h (SN-38) | IC50, cell viability 72 h (AZD4320) | IC50, cell viability 72 h (Alisertib) | IC50, cell viability 72 h (Gefitinib) | IC50, cell viability 72 h (Prexasertib) | IC50, cell viability 72 h (Doxorubicin) | IC50, cell viability 72 h (AZD5153) | IC50, cell viability 72 h (Lapatinib) | IC50, cell viability 72 h (AZD8186) | IC50, cell viability 72 h (Crizotinib) | IC50, cell viability 72 h (Savolitinib) | IC50, cell viability 72 h (AZD6738) | IC50, cell viability 72 h (AZD5991) | IC50, cell viability 72 h (AZD7648) | IC50, cell viability 72 h (Taselisib) | IC50, cell viability 72 h (Selumetinib) | IC50, cell viability 72 h (Olaparib; max 10 µM)
M14 (Melanoma) | > 3000 nM | 624 nM | > 3000 nM | > 3000 nM |  |  |  |  |  |  |  |  |  |  |  |  |  |  |  |  |  |  |  |  |  |  |  |  | 
BT-474 (Breast Carcinoma) |  | > 3000 nM | > 3000 nM |  | > 10000 nM | > 1000 nM | > 10000 nM | > 300 nM | > 1000 nM | > 2000 nM | > 1 nM | > 1000 nM | > 300 nM | > 1000 nM | > 10000 nM | > 10000 nM | > 1000 nM | > 1000 nM | > 1000 nM | 2540 nM | > 3000 nM | > 10000 nM | > 1000 nM | > 10000 nM | > 1000 nM | > 10000 nM | 779 nM | > 10000 nM | > 10000 nM
TK (B-Cell Non-Hodgkin's Lymphoma) |  | 293 nM | > 3000 nM |  | > 10000 nM | > 1000 nM | > 10000 nM | > 300 nM | 46.2 nM | > 2000 nM | > 1 nM | > 1000 nM | 16.7 nM |  | 2790 nM | > 10000 nM | 10.8 nM | > 1000 nM | > 1000 nM | > 10000 nM | > 3000 nM | > 10000 nM | > 1000 nM | 1020 nM | > 1000 nM | > 10000 nM | > 10000 nM | > 10000 nM | > 10000 nM
HT-1197 (Bladder Carcinoma) |  | 2150 nM | > 3000 nM |  | > 10000 nM | > 1000 nM | > 10000 nM | > 300 nM | > 1000 nM | > 2000 nM | > 1 nM | > 1000 nM | > 300 nM | > 1000 nM | > 10000 nM | > 10000 nM | > 1000 nM | > 1000 nM | 697 nM | > 10000 nM | > 3000 nM | > 10000 nM | > 1000 nM | > 10000 nM | > 1000 nM | > 10000 nM | 2890 nM | > 10000 nM | > 10000 nM
GRANTA-519 (B-Cell Non-Hodgkin's Lymphoma) |  | 550 nM | > 3000 nM |  | > 10000 nM | > 1000 nM | > 10000 nM | > 300 nM | > 1000 nM | > 2000 nM | > 1 nM | > 1000 nM | 4.06 nM |  | > 10000 nM | > 10000 nM | 17.4 nM | 869 nM | > 1000 nM | > 10000 nM | > 3000 nM | > 10000 nM | > 1000 nM | 1950 nM | > 1000 nM | > 10000 nM | > 10000 nM | > 10000 nM | > 10000 nM
SUP-HD1 (Hodgkin's Lymphoma) |  | 1330 nM | > 3000 nM |  | 7900 nM | > 1000 nM | > 10000 nM | > 300 nM | 15.6 nM | > 2000 nM | > 1 nM | 995 nM | 2.49 nM | 12.6 nM | 5400 nM | > 10000 nM | 15.5 nM | 99.6 nM | 224 nM | > 10000 nM | > 3000 nM | 6540 nM | > 1000 nM | 4040 nM | 516 nM | > 10000 nM | 5270 nM | > 10000 nM | > 10000 nM
DK-MG (Glioblastoma) |  | 2150 nM | > 3000 nM |  | > 10000 nM | 375 nM | > 10000 nM | > 300 nM | > 1000 nM | > 2000 nM | > 1 nM | > 1000 nM | > 300 nM | > 1000 nM | > 10000 nM | > 10000 nM | > 1000 nM | > 1000 nM | 803 nM | > 10000 nM | 2850 nM | 4990 nM | > 1000 nM | > 10000 nM | > 1000 nM | > 10000 nM | > 10000 nM | > 10000 nM | > 10000 nM
HT-3 (Cervical Carcinoma) |  | 2340 nM | > 3000 nM |  | > 10000 nM | > 1000 nM | > 10000 nM | > 300 nM | > 1000 nM | > 2000 nM | > 1 nM | > 1000 nM | 8.56 nM | > 1000 nM | > 10000 nM | > 10000 nM | > 1000 nM | 732 nM | > 1000 nM | > 10000 nM | > 3000 nM | > 10000 nM | > 1000 nM | > 10000 nM | > 1000 nM | > 10000 nM | > 10000 nM | > 10000 nM | > 10000 nM
Daudi (Burkitt's Lymphoma) |  | 1020 nM | > 3000 nM |  | > 10000 nM | > 1000 nM | > 10000 nM | > 300 nM | > 1000 nM | 627 nM | > 1 nM | > 1000 nM | 8.52 nM | > 1000 nM | 884 nM | > 10000 nM | 29.2 nM | 173 nM | 243 nM | > 10000 nM | > 3000 nM | 5560 nM | > 1000 nM | 3880 nM | > 1000 nM | > 10000 nM | 8260 nM | > 10000 nM | > 10000 nM
